Data from PubChem BioAssay AID1963825 (Molecular Pharmacology Branch, DTP, NCI, 2024).
pIC50: −log10 of the molar value. Several values for one entry are separate records, joined by “and”; a condition that tells them apart may be missing. Identical values can stand only once.

Assay: Anticancer human tumor 997537-175-T-J1-PDC patient-derived colon adenocarcinoma cell line growth inhibition [POLQ]
Conditions: 997537-175-T-J1-PDC complex spheroid viability, combination with POLQ inhibitors; for viability, T/C: stronger effect = lower value
How it was run: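 Patient-derived tumour cells were co-cultured with HUVEC and mesenchymal stem cells as multicellular spheroids at 37 °C. They were treated with POLQ inhibitors (novobiocin, ART-558, RP6685) alone or combined with other agents. Top concentrations were at or near clinical Cmax (otherwise 10 microM; SN-38 at 1 microM), decreasing in half-log steps.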

[1] = curve of first compound, second compound 0.0316 µM
[2] = curve of first compound, second compound 0.1 µM
[3] = curve of first compound, second compound 0.316 µM
[4] = curve of first compound, second compound 1 µM
[5] = curve of first compound, second compound 3.16 µM
[6] = curve of first compound, second compound 10 µM
[7] = second compound 0.0316 µM, first compound 0.0316 µM
[8] = second compound 0.0316 µM, first compound 0.1 µM
[9] = second compound 0.0316 µM, first compound 0.316 µM
[10] = second compound 0.0316 µM, first compound 1 µM
[11] = second compound 0.0316 µM, first compound 3.16 µM
[12] = second compound 0.0316 µM, first compound 10 µM
[13] = second compound 0.1 µM, first compound 0.0316 µM
[14] = second compound 0.1 µM, first compound 0.1 µM
[15] = second compound 0.1 µM, first compound 0.316 µM
[16] = second compound 0.1 µM, first compound 1 µM
[17] = second compound 0.1 µM, first compound 3.16 µM
[18] = second compound 0.1 µM, first compound 10 µM
[19] = second compound 0.316 µM, first compound 0.0316 µM
[20] = second compound 0.316 µM, first compound 0.1 µM
[21] = second compound 0.316 µM, first compound 0.316 µM
[22] = second compound 0.316 µM, first compound 1 µM
[23] = second compound 0.316 µM, first compound 3.16 µM
[24] = second compound 0.316 µM, first compound 10 µM
[25] = second compound 1 µM, first compound 0.0316 µM
[26] = second compound 1 µM, first compound 0.1 µM
[27] = second compound 1 µM, first compound 0.316 µM
[28] = second compound 1 µM, first compound 1 µM
[29] = second compound 1 µM, first compound 3.16 µM
[30] = second compound 1 µM, first compound 10 µM
[31] = second compound 3.16 µM, first compound 0.0316 µM
[32] = second compound 3.16 µM, first compound 0.1 µM
[33] = second compound 3.16 µM, first compound 0.316 µM
[34] = second compound 3.16 µM, first compound 1 µM
[35] = second compound 3.16 µM, first compound 3.16 µM
[36] = second compound 3.16 µM, first compound 10 µM
[37] = second compound 10 µM, first compound 0.0316 µM
[38] = second compound 10 µM, first compound 0.1 µM
[39] = second compound 10 µM, first compound 0.316 µM
[40] = second compound 10 µM, first compound 1 µM
[41] = second compound 10 µM, first compound 3.16 µM
[42] = second compound 10 µM, first compound 10 µM
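Also: luminescence signal used as a surrogate for viable cells; spheroids exposed to drugs for seven days before readout.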

For O=C(Nc1ccc(O)c(NS(=O)(=O)c2ccc(F)cc2)c1)c1ccc(-c2ccccc2)cc1 + Cc1cccc(N(C)C(=O)C2C(O)CCN2c2nc(C)cc(C(F)(F)F)c2C#N)c1, the pIC50 [1] was less than 5.00, the pIC50 [2] was less than 5.00 and the pIC50 [3] was less than 5.00. It also gave a pIC50 [4] of less than 5.00, a pIC50 [5] of less than 5.00 and a pIC50 [6] of less than 5.00. The viability, T/C [7] was 105%, the viability, T/C [8] was 105% and the viability, T/C [9] was 99.4%. It also gave a viability, T/C [10] of 100%, a viability, T/C [11] of 101% and a viability, T/C [12] of 72.7%. It also gave a viability, T/C [13] of 107%, a viability, T/C [14] of 99.4% and a viability, T/C [15] of 93.9%. For the same compound, the viability, T/C [16] was 103%, the viability, T/C [17] was 91% and the viability, T/C [18] was 98.1%. The viability, T/C [19] was 105%, the viability, T/C [20] was 91.9% and the viability, T/C [21] was 111%. It also gave a viability, T/C [22] of 103%, a viability, T/C [23] of 97.5% and a viability, T/C [24] of 92.5%. The viability, T/C [25] was 93.7%, the viability, T/C [26] was 84.4% and the viability, T/C [27] was 94.9%. The viability, T/C [28] was 87.3%, the viability, T/C [29] was 111% and the viability, T/C [30] was 98.6%. The viability, T/C [31] was 97.2%, the viability, T/C [32] was 106% and the viability, T/C [33] was 93%. For the same compound, the viability, T/C [34] was 80.6%, the viability, T/C [35] was 106% and the viability, T/C [36] was 91.7%. For the same compound, the viability, T/C [37] was 96.8%, the viability, T/C [38] was 101% and the viability, T/C [39] was 108%. For the same compound, the viability, T/C [40] was 93%, the viability, T/C [41] was 89.5% and the viability, T/C [42] was 105%.
With CCc1cc2c(N3CCc4c(cc(Cn5ccnc5)cc4-c4cn(C)nc4C(F)(F)F)C3=O)cc(C)nc2c(OC)n1 the viability, T/C (compound 0.0316 µM) was 90.5% and 98.7% and 107%, the viability, T/C (compound 0.1 µM) was 95.7% and 82% and 107% and the viability, T/C (compound 0.316 µM) was 90.7% and 71.5% and 94.3%. The viability, T/C (compound 1 µM) was 78.7% and 91.3% and 92.2%, the viability, T/C (compound 3.16 µM) was 69.9% and 86.2% and 67.7% and the viability, T/C (compound 10 µM) was 58% and 61.9% and 41.5%. The pIC50 (curve of compound) was < 5.00 and 5.16.
In the case of COc1cccc(OCCCN)c1-c1cc(Nc2cnc(C#N)cn2)n[nH]1, the viability, T/C (compound 0.00316 µM) was 96.8% and 107% and 96.1%, the viability, T/C (compound 0.01 µM) was 106% and 98.4% and 92.4% and the viability, T/C (compound 0.0316 µM) was 54.1% and 72% and 72.3%. The viability, T/C (compound 0.1 µM) was 52.4% and 57.1% and 43.6%, the viability, T/C (compound 0.316 µM) was 24.1% and 36.5% and 25.2% and the viability, T/C (compound 1 µM) was 25.2% and 27.3% and 13.4%. For the same compound, the pIC50 (curve of compound) was 7.18 and 6.87 and 7.10.
In the case of CNCc1ccc(-c2[nH]c3cc(F)cc4c3c2CCNC4=O)cc1, the viability, T/C (compound 0.0316 µM) was 90.4% and 94.4% and 96.8%, the viability, T/C (compound 0.1 µM) was 96.6% and 93.5% and 90.8% and the viability, T/C (compound 0.316 µM) was 91% and 108% and 106%. For the same compound, the viability, T/C (compound 1 µM) was 98.3% and 93.2% and 88.9%, the viability, T/C (compound 3.16 µM) was 100% and 103% and 99.9% and the viability, T/C (compound 10 µM) was 95% and 98.8% and 89.1%. It also gave a pIC50 (curve of compound) of less than 5.00.
In the case of CCc1cc2c(N3CCc4c(cc(Cn5ccnc5)cc4-c4cn(C)nc4C(F)(F)F)C3=O)ccnc2c(OC)n1, the viability, T/C (compound 0.0316 µM) was 95.3% and 92.8% and 103%, the viability, T/C (compound 0.1 µM) was 79.7% and 104% and 98.2% and the viability, T/C (compound 0.316 µM) was 98.5% and 76.2% and 96.9%. For the same compound, the viability, T/C (compound 1 µM) was 84.6% and 90.4% and 91.4%, the viability, T/C (compound 3.16 µM) was 76.5% and 68.3% and 72.7% and the viability, T/C (compound 10 µM) was 57.5% and 79.9% and 53.8%. For the same compound, the pIC50 (curve of compound) was less than 5.00.
With C=CCn1c(=O)c2cnc(Nc3ccc(N4CCN(C)CC4)cc3)nc2n1-c1cccc(C(C)(C)O)n1 the viability, T/C (compound 0.00316 µM) was 98.4% and 90.3% and 83.5%, the viability, T/C (compound 0.01 µM) was 96.6% and 88.9% and 102% and the viability, T/C (compound 0.0316 µM) was 73.2% and 89.1% and 83.6%. The viability, T/C (compound 0.1 µM) was 94% and 101% and 86.6%, the viability, T/C (compound 0.316 µM) was 95.9% and 94.9% and 76.8% and the viability, T/C (compound 1 µM) was 74.5% and 63.4% and 69.5%. For the same compound, the pIC50 (curve of compound) was less than 6.00.
In the case of CCCS(=O)(=O)Nc1ccc(F)c(C(=O)c2c[nH]c3ncc(-c4ccc(Cl)cc4)cc23)c1F + Cc1cccc(N(C)C(=O)C2C(O)CCN2c2nc(C)cc(C(F)(F)F)c2C#N)c1, the pIC50 [1] was 5.31, the pIC50 [2] was 5.27 and the pIC50 [3] was 5.23. The pIC50 [4] was 5.35, the pIC50 [5] was 5.18 and the pIC50 [6] was 5.29. The viability, T/C [7] was 100%, the viability, T/C [8] was 79.5% and the viability, T/C [9] was 82.5%. The viability, T/C [10] was 75.4%, the viability, T/C [11] was 70.5% and the viability, T/C [12] was 22.8%. It also gave a viability, T/C [13] of 105%, a viability, T/C [14] of 91.7% and a viability, T/C [15] of 82.4%. For the same compound, the viability, T/C [16] was 83%, the viability, T/C [17] was 74.5% and the viability, T/C [18] was 25.9%. For the same compound, the viability, T/C [19] was 105%, the viability, T/C [20] was 78% and the viability, T/C [21] was 71.7%. For the same compound, the viability, T/C [22] was 75.4%, the viability, T/C [23] was 80.8% and the viability, T/C [24] was 23.1%. It also gave a viability, T/C [25] of 102%, a viability, T/C [26] of 87.4% and a viability, T/C [27] of 85.9%. The viability, T/C [28] was 75.7%, the viability, T/C [29] was 61.5% and the viability, T/C [30] was 29.5%. The viability, T/C [31] was 85.7%, the viability, T/C [32] was 77% and the viability, T/C [33] was 77.7%. The viability, T/C [34] was 68%, the viability, T/C [35] was 75.1% and the viability, T/C [36] was 36.7%. It also gave a viability, T/C [37] of 92.3%, a viability, T/C [38] of 88.9% and a viability, T/C [39] of 86.1%. The viability, T/C [40] was 81.5%, the viability, T/C [41] was 73.3% and the viability, T/C [42] was 20.6%.
C=CC(=O)N1CCN(c2nc(=O)n(-c3c(C)ccnc3C(C)C)c3nc(-c4c(O)cccc4F)c(F)cc23)C(C)C1 (stereo unspecified) + COC1C(OC(N)=O)C(O)C(Oc2ccc3c(O)c(NC(=O)c4ccc(O)c(CC=C(C)C)c4)c(=O)oc3c2C)OC1(C)C gave a pIC50 [1] of less than 5.00, a pIC50 [2] of less than 5.00 and a pIC50 [3] of less than 5.00. For the same compound, the pIC50 [4] was less than 5.00, the pIC50 [5] was less than 5.00 and the pIC50 [6] was less than 5.00. For the same compound, the viability, T/C [7] was 106%, the viability, T/C [8] was 108% and the viability, T/C [9] was 107%. It also gave a viability, T/C [10] of 112%, a viability, T/C [11] of 109% and a viability, T/C [12] of 91.7%. It also gave a viability, T/C [13] of 123%, a viability, T/C [14] of 125% and a viability, T/C [15] of 95.5%. It also gave a viability, T/C [16] of 91.5%, a viability, T/C [17] of 115% and a viability, T/C [18] of 108%. For the same compound, the viability, T/C [19] was 106%, the viability, T/C [20] was 95.6% and the viability, T/C [21] was 106%. The viability, T/C [22] was 105%, the viability, T/C [23] was 117% and the viability, T/C [24] was 93.8%. For the same compound, the viability, T/C [25] was 106%, the viability, T/C [26] was 113% and the viability, T/C [27] was 96.6%. The viability, T/C [28] was 105%, the viability, T/C [29] was 109% and the viability, T/C [30] was 105%. The viability, T/C [31] was 105%, the viability, T/C [32] was 101% and the viability, T/C [33] was 115%. For the same compound, the viability, T/C [34] was 104%, the viability, T/C [35] was 101% and the viability, T/C [36] was 95.7%. It also gave a viability, T/C [37] of 96.3%, a viability, T/C [38] of 109% and a viability, T/C [39] of 93%. The viability, T/C [40] was 105%, the viability, T/C [41] was 104% and the viability, T/C [42] was 96.7%.
